The source of these data is patent US20090099064A1, “Derivatized insulin oligomers” (Diabecore Medical Inc.,, priority 2006, published 2009).

Where two headings read alike, the source gives them in different places.

For data set [1], the system named is pancreatectomized diabetic beagle dogs. The settings on record: dog, in vivo, iv.
For data set [2] the test system is unchanged. In words: Intravenous injection into pancreatectomized diabetic dogs, blood glucose.
Data set [3] concerns L6 rat myocytes. In words: 2-deoxyglucose uptake in L6 rat myocyte cell cultures. The note with it: 60 min incubation. Type of data set: cell-based. As to the method:
FIG. 5. Dose response curve of human & porcine & P-insulin oligomers in L6 rat myocytes. Cells were incubated for 60 min. in the various concentrations of each insulin in separate experiments. 2-deoxyglucose uptake was then measured.
P-insulin oligomers of sequence ID NO. 1 were tested in L6 rat myocyte cell cultures for their ability to cause glucose uptake.

In data set [4] the test system is diabetic beagle dogs. Description: Subcutaneous injection into diabetic dogs, glucose suppression. It is filed as in vivo. The settings on record: compared with unmodified insulin. As to the method: FIG. 4. Subcutaneous injection of human insulin and P-insulin oligomers into diabetic beagle dogs.
The formulation of example 3 containing P-insulin oligomers of sequence ID NO.2 and with 3:1 M:M protamine/insulin or unmodified insulin were injected subcutaneously into diabetic dogs.

For data set [5] the following is noted: phase 3 clinical trials; cited from earlier work.
The subject of data set [6] is Sprague-Dawley rats. Description: Pulmonary (intratracheal) administration to Sprague-Dawley rats, whole blood glucose. It is filed as in vivo. Here is the method: FIG. 6. Glucose response of Sprague-Dawley rats to […] of phosphorylated insulin hexamer. Rats were injected at Oh and glucose levels measured for 12 h. As shown, glucose levels dropped by 2 h post-dosing and remained suppressed out to 11 h post-dose, after which they returned to baseline or pre-dose levels.
Via the pulmonary route, six Sprague-Dawley rats (BW 250-360 g.) were administered 4 mg of phosphorylated insulin oligomer (in the form of hexamer). The animals were dosed by intratracheal administration using a PennCentury intratracheal Aerosolizer (Microsprayer). The dose volume was 100 μL/animal. The dose concentration for the study was prepared by dilution of 30 mg/mL phosphorylated insulin hexamer in isotonic phosphate buffered normal saline, pH 7.4.
An Antisedan cocktail consisting of atipamezole hydrochloride (1 mg/mL, 1 mg/kg) and saline was administered by subcutaneous injection at a dose volume of 1 mL/kg, following completion of the dosing process. A series of 13 blood samples (approximately 0.1 mL/sample) were collected from each animal at 1, 2, 3, 4, 5, 6, 7, 8, 9, 10, 11 and 12 hours post-dose. For this purpose, each rat (unanesthetized) was bled by jugular/tail vein venipuncture (or other site as deemed necessary) and the sample used for measuring whole blood glucose levels using the Accu Soft Advantage™ (glucometer) method. […]

For data set [7] the following is noted: U.S. Pat. No. 5,453,417 & PCT/CA92/00082; cited from earlier work.
The mark [8] stands for this setting: IV injection, pancreatectomized diabetic dogs.

As to “P-insulin oligomers: phosphorylated insulin oligomers comprising sequence ID NOs. 1 and 2; FIG. 3 and 5 use ID NO. 1, FIG. 4 uses ID NO. 2”, in data set [1], the “dose at which hypoglycemia was observed” value was 8 times the basal or "glucose ma and the “serum half-life / duration of action (in words)” value is “extended duration of action (long serum half-life)”. For the same substance, in data set [2] (setting [8]), the “course of blood glucose after injection” value is reported as “maintenance of normal glucose without hyperglycemia at all doses”. In data set [3] (entire dose range), the “dose response of 2-deoxyglucose uptake” value is “flattened dose response at all concentrations investigated”. For the same substance, the “maximal stimulation of deoxy-glucose uptake” value in data set [3] (relative to human (and porcine) insulin) is “markedly lower than that for porcine or human insulin”. For the same substance, in data set [4], the “glucose suppression / duration of action” value is “extended duration of action”.
Turning to Detemir, the “fasting blood glucose (FBG) achieved” value in data set [5] was 145 mg %.
“phosphorylated insulin hexamer: phosphorylated insulin oligomer in the form of hexamer, in isotonic phosphate buffered normal saline, pH 7.4”: the “time at which glucose returned to pre-dose levels” value in data set [6] (4 mg) was at most 12 h. Besides, the “time for which blood glucose remained below baseline post-dosing” value in data set [6] (4 mg (FIG. 6 legend says 40 mg)) was 11 h.
Regarding Lantus, the “fasting blood glucose (FBG) achieved” value in data set [5] is given as 145 mg %.
For human insulin, the “serum half-life / duration of action (in words)” value in data set [2] (IV injection, pancreatectomized diabetic beagle dogs) is reported as “short serum half-life”. In data set [2] (setting [8]), the “course of blood glucose after injection” value is “rapid decline in blood glucose” and the hypoglycemia result is “pronounced hypoglycemia”. The substance also displayed a duration of action in data set [2] (given IV, pancreatectomized diabetic dogs) of 20 min.
As to “monomeric phosphorylated insulin: monomeric phosphorylated insulin of the Lougheed patents U.S. Pat. No. 5,453,417 & PCT/CA92/00082”, in data set [7], the “flattening of insulin's dose response” value is on record as 3-4 fold.
